Counter-ions that a name gives are not always drawn. Where a SMILES comes first, the peptide text is derived from it. [ ]: non-standard residue; d: D form. dNle = CCCC[C@@H](N)C(=O)O; Nle = CCCC[C@H](N)C(=O)O; Ahx = NCCCCCC(=O)O
What was measured:
Met = test: Inhibition of HGF-dependent Met phosphorylation in HEK293 cells; type: cell-based, human; conditions: 10 min
Description: HEK293 cells were seeded in 6 well tissue culture plates and grown to 95% confluency in DMEM containing 10% FBS. The cells were serum deprived for 24 h prior to the treatment to reduce the basal levels of phospho-Met. Following serum starvation, cocktails comprised of vehicle and HGF with/without 6-AH analogs were prepared and pre-incubated for 30 min at room temperature. The cocktail was then added to the cells for 10 min to stimulate the Met receptor and downstream proteins. Cells were harvested using RIPA lysis buffer (Millipore; Billerica, Mass.) fortified with phosphatase inhibitor cocktails 1 and 2 (Sigma-Aldrich; St. Louis, Mo.). The lysate was clarified by centrifugation at 15,000 nx g for 15 min, protein concentrations were determined using the BCA total protein assay (Pierce), and then appropriate volumes of the lysates were diluted with 2× reducing Laemmli buffer and heated for ten min at 95° C. Samples containing identical amounts of protein were resolved using SDS-PAGE (Criterion, BioRad Laboratories), transferred to nitrocellulose, and blocked in Tris-buffered saline (TBS) containing 5% milk for 1 h at room temperature. The phospho-Met antibody were added to the blocking buffer at a final concentration of 1:1000 and incubated at 4° C. overnight with gentle agitation. The membranes were then washed several times with water and TBS ([…], 0.05% Tween-20), a 1:5000 dilution of horseradish-peroxidase conjugated goat anti-rabbit antiserum was added, and the membranes further incubated for 1 h at room temperature. Proteins were visualized using the Supersignal West Pico Chemiluminescent Substrate system (Pierce, Fenton, Mo.) and molecular weights determined by comparison to protein ladders (BenchMark, Invitrogen, and Kaleidoscope, BioRad). Film images were digitized and analyzed using a UVP phosphoimager.

MDCK cells [1] = test: HGF-dependent MDCK cell proliferation (MTT); type: cell-based, canine; conditions: analog 10^−10M, 4 days
Description: 5000 MDCK cells were seeded into the wells of a 96 well plates in 10% FBS DMEM. To induce cellular quiescence, the cells were serum deprived for 24 h prior to initiating the treatments. Following serum starvation, 10 ng/ml HGF alone and with various concentrations of 6-AH analogs or PBS vehicle were added to the media. The cells were allowed to grow under these conditions for 4 days with a daily addition of 6-AH analogs. On the fourth day, 1 mg/ml of […] (MTT, Sigma-Aldrich) prepared in PBS was added to the cells and incubated for 4 h. Dimethyl sulfoxide diluted in a 0.01M glycine buffer was added to solubilize the cell membranes and the absorbance of reduced MTT in the buffer was quantitated at 590 nm using a plate reader (Biotek Synergy 2, Winooski, Vt.). HGF-dependent proliferation was determined by subtracting the basal proliferation (in the absence of HGF) from total proliferation rates in groups containing HGF.

MDCK cells [2] = test: Inhibition of HGF-dependent scattering in MDCK cells; type: cell-based, canine; conditions: for inhibition of HGF-dependent MDCK cell scattering: 20 ng/ml HGF, 48 h
Description: (§1) MDCK cells were grown to 100% confluency on the coverslips in six-well plates and washed twice with PBS. The confluent coverslips were then aseptically transferred to new six well plates containing 900 μl serum free DMEM. Norleual, Hinge peptide, and/or HGF (20 ng/ml) were added to appropriate wells. Control wells received PBS vehicle. Plates were incubated at 37° C. with 5% CO2 for 48 hours. Media was removed and cells were fixed with methanol. Cells were stained with Diff-Quik Wright-Giemsa (Dade-Behring, Newark, Del.) and digital images were taken. Coverslips were removed with forceps and more digital images were captured. Pixel quantification of images was achieved using Image J and statistics were performed using Prism 5 and InStat v.3.05.
as §1, with “h.” for “hours.”, “v.3.05 (GraphPad; San Diego, Calif.).” for “v.3.05.”

hippocampal neurons [3] = test: Spinogenesis in mRFP-β-actin transfected dissociated hippocampal neurons; type: cell-based, rat
Description: (§2) Hippocampal neurons (2×10^5 cells per square cm) were cultured from P1 Sprague Dawley rats on plates coated with poly-L-lysine from Sigma (St. Louis, Mo.; molecular weight 300,000). Hippocampal neurons were maintained in Neurobasal A media from Invitrogen (Carlsbad, Calif.) supplemented with B27 from Invitrogen, 0.5 mM L-glutamine, and […] cytosine-D-arabinofuranoside from Sigma added at 2 days in vitro. Hippocampal neurons were then cultured a further 3-7 days, at which time they were either transfected or treated with various pharmacological reagents as described in (Wayman, Davare et al. 2008).
(§3) Neurons were transfected with mRFP-β-actin on day in vitro 6 (DIV6) using LipofectAMINE™ 2000 (Invitrogen) according to the manufacturer's protocol. This protocol yielded the desired 3-5% transfection efficiency thus enabling the visualization of individual neurons. Higher efficiencies obscured the dendritic arbor of individual neurons. Expression of fluorescently tagged actin allowed clear visualization of dendritic spines, as dendritic spines are enriched in actin. On DIV7 the cells were treated with vehicle (H20) or peptides (as described in the text) added to media. On DIV 12 the neurons were fixed (4% paraformaldehyde, 3% sucrose, 60 mM PIPES, 25 mM HEPES, 5 mM EGTA, 1 mM MgCl2, pH 7.4) for 20 min at room temperature and mounted. Slides were dried for at least 20 hours at 4° C. and fluorescent images were obtained with Slidebook 4.2 Digital Microscopy Software driving an Olympus IX81 inverted confocal microscope with a 60× oil immersion lens, NA 1.4 and resolution 0.280 μm Dendritic spine density was measured on primary and secondary dendrites at a distance of at least 150 μm from the soma. Five 50 μm long segments of dendrite from at least 10 neurons per data point were analyzed for each data point reported. Each experiment was repeated at least three times using independent culture preparations. Dendrite length was determined using the National Institutes of Health's Image J 1.41o program (NIH, Bethesda, Md.) and the neurite tracing program Neuron J (Meijering, Jacob et al. 2004) Spines were manually counted.
as §2, with “centimeter)” for “cm)”, “P1-2” for “P1”, “the text or figure legends.” for “(Wayman, Davare et al. 2008).”

hippocampal neurons [4] = test: Whole-cell recordings of AMPA-mediated mEPSCs; type: cell-based, rat
CA1 hippocampal neurons = test: Spinogenesis in organotypic hippocampal slice cultures; type: cell-based, rat; conditions: 10^−12 M, 2 days, organotypic slices
Description: (§4) Hippocampi from P4 Sprague Dawley rats were cultured as previously described (Wayman, Impey et al. 2006). Briefly, 400 μm slices were cultured on (Milipore, Billerica, Mass.) for 3 days after which they were biolistically transfected with tomato fluorescent protein (TFP) using a Helios Gen Gun (BioRad, Hercules, Calif.), according to the manufacturer's protocol, to visualize dendritic arbors. Following a 24 hour recovery period slices were stimulated with vehicle (H2O), 1 pM Nle1-AngIV or Dihexa for 2 days. Slices were fixed and mounted. Hippocampal CA1 neuronal processes were imaged and measured as described above.
as §4, with “Gene” for “Gen”, “with” for “with vehicle (H2O),”

c-Met receptor = target: T1, c-Met receptor (Rattus norvegicus, UniProt P97523); test: Effect of c-Met knock-down (shMet) on spinogenesis in hippocampal neurons; type: cell-based; conditions: neurons transfected with mRFP-β-actin alone; 10^−12 M, 48 hours
T1 construct: Dissociated hippocampal neurons were transfected with mRFP-β-actin and shMet RNA; endogenous in cells; host or cells: dissociated hippocampal neurons from P1-2 Sprague Dawley rats
T1 sequence (P17945 33-495 partner limits assumed): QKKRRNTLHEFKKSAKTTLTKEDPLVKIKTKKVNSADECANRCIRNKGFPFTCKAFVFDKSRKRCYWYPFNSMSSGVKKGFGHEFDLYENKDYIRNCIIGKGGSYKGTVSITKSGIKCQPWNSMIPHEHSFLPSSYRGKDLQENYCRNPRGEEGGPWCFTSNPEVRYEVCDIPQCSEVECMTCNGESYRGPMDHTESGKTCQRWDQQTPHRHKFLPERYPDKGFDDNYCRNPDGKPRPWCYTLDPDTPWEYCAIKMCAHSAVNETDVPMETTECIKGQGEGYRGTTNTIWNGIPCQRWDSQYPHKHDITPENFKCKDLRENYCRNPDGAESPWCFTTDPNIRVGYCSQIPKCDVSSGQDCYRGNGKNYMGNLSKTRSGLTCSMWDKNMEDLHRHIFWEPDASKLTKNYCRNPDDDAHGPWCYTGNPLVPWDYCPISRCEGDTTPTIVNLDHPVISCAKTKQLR
T1 sequence (P17945 496-728 partner limits assumed): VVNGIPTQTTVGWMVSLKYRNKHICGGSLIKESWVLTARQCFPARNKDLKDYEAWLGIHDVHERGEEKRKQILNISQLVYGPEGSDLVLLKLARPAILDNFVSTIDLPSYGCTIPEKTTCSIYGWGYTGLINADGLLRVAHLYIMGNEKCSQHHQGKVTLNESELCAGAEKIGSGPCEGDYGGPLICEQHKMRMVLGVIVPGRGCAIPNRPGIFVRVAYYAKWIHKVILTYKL
T1 sequence (P97523 25-1382): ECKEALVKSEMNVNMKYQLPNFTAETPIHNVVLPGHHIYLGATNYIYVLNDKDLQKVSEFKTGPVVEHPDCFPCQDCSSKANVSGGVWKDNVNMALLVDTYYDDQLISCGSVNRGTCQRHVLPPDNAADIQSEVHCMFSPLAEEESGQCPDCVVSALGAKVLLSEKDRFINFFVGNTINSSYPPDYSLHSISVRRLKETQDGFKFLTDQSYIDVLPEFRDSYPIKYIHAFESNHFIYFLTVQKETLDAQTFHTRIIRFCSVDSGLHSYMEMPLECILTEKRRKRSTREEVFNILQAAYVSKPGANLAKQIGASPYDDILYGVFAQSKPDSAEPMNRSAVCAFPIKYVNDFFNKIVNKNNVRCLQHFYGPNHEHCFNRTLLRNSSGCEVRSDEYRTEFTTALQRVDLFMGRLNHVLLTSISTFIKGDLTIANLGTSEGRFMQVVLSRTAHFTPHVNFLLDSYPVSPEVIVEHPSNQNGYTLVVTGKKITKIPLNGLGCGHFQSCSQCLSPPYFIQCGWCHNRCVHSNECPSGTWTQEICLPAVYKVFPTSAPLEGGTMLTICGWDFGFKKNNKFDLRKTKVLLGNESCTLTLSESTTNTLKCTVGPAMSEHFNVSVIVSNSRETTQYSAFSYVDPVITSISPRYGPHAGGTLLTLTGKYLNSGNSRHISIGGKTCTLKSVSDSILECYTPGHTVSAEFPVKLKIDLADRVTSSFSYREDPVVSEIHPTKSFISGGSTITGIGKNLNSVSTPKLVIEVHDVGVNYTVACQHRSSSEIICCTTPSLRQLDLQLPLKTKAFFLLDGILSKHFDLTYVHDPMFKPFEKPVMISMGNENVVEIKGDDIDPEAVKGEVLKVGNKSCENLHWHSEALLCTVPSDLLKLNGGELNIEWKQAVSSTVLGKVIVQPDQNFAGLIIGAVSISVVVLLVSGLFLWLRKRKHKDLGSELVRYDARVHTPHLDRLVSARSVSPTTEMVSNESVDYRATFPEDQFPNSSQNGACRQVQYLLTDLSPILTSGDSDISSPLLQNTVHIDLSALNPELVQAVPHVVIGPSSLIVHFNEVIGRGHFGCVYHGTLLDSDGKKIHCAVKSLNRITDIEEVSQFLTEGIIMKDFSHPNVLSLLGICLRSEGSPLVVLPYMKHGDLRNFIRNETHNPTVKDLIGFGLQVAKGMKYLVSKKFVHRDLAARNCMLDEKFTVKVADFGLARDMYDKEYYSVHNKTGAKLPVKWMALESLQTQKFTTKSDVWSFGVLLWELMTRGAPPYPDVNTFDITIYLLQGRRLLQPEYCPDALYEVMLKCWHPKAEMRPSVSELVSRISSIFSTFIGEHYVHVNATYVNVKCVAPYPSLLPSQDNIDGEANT
Text: as §3
A target sequence for c-Met was designed using RNAi central design program (see the website located at cancan.cshl.edu/). […]. The shRNA was transfected into cells using the lipofectamine method described above. Verification of receptor knockdown was done by creating a c-Met-6-Myc tagged gene product using the Gateway cloning system (Invitrogen). […]

Male Sprague-Dawley rats = test: Morris water maze with the HGF antagonist Hinge (Example 2)
Description: Male Sprague-Dawley rats (Taconic derived) weighing 390-450 g were maintained with free access to water and food (Harland Tekland F6 rodent diet, Madison, Wis.) except the night prior to surgery when food was removed. Each animal was anesthetized with Ketamine hydrochloride plus Xylazine (100 and 2 mg/kg im. respectively; Phoenix Scientific; St. Joseph, Mo., and Moby; Shawnee, Kans.). […] The guide cannula measured 2.5 cm in overall length and was prepared with a heat bulge placed 2.5 mm from its beveled tip, thus acting as a stop to control the depth of penetration. Once in position, the cannula was secured to the skull with two stainless-steel screws and dental cement. […]
A black circular platform (diameter: 12 cm; height: 24 cm) was placed 30 cm from the wall and submerged 2 cm below the water surface. […] The swimming path of the animals was recorded using a computerized video tracking system (Chromotrack; San Diego Instruments, CA). […] Swim speed was determined from these values. […]
Morris water maze data set mean latencies to find the platform during each daily block of five trials were calculated for each animal for each day of acquisition. […] Significant effects were analyzed by Newman-Keuls post-hoc test with a level of significance set at P<0.05.

For `CCCC[C@@H](N)C(=O)N[C@@H](Cc1c[nH]c2ccccc12)C(=O)N[C@H](C(=O)NCCCCCC(N)=O)[C@@H](C)CC` [D-Nle-Trp-Ile-NH—(CH2)5—CONH2] (H-[dNle]WI[Ahx]-NH2), the “inhibition of HGF-dependent Met auto-phosphorylation” value (Met) was “intermediate inhibitory activity”, the “inhibition of HGF-dependent MDCK cell proliferation” value (MDCK cells [1]) was “inhibitory activity, albeit less than that observed with the most potent analogs” and the “inhibition of HGF-dependent MDCK cell scattering” value (MDCK cells [2]) was “different from the HGF alone group but not different from the control group”.

`CCCC[C@H](N)C(=O)N[C@@H](Cc1ccc(O)cc1)C(=O)N[C@H](C(=O)N[C@@H](Cc1c[nH]cn1)C(=O)N1CCC[C@H]1C(=O)N[C@@H](Cc1ccccc1)C(=O)O)[C@@H](C)CC` [Nle1-AngIV, reference compound] (H-[Nle]YIHPF-OH; N-terminus and C-terminus assumed) was tested, and the “fold increase in the number of spines” value (hippocampal neurons [3]; 10^−12 M, 5 day treatment, vs vehicle) was “greater than 2 fold”, the “fold increase over control mEPSC frequency” value (hippocampal neurons [4]; 10-12 M, 5 days) was 1.7 fold and the “mean frequency of AMPA-mediated mEPSCs” value (hippocampal neurons [4]; 10-12 M, 5 days (Example 1)) was 5.27 Hz. The “spines per 50 μm dendrite length, CA1 neurons” value (CA1 hippocampal neurons) was 11 spines per 50 μm dendrite length and the “mean spine numbers per 50 μm dendrite length” value (c-Met receptor) was 20.0.

For `CN1[C@@H]2C[C@@H](OC(=O)[C@H](CO)c3ccccc3)C[C@H]1[C@@H]1O[C@@H]12` [scopolamine, scopolamine hydrobromide], the “mean latency to find the pedestal, final day of training (day 8)” value (Male Sprague-Dawley rats; scopolamine icv pretreated rats, agents 300 pmol icv) was 84.8 s.

With “DYIRNC (Synthetic hinge peptide) [reference compound]” the “effect on basal spinogenesis” value (hippocampal neurons [3]; Hinge alone, wide range of doses) was “no effect on spinogenesis”, the “inhibition of stimulated spine formation” value (hippocampal neurons [3]; neurons stimulated with 10 ng/ml HGF, 10^−12 M Nle1-AngIV or 10^−12 M Dihexa) was “effectively inhibit spine formation” and the “mean frequency of mEPSCs” value (hippocampal neurons [4]; 10^−12 M, 5 days (Example 2)) was 4.51±0.47. The “inhibition of scattering of MDCK cells” value (MDCK cells [2]; Hinge) was “inhibit scattering” and the “mean latency to find the pedestal, final day of training (day 8)” value (Male Sprague-Dawley rats; aCSF followed by Hinge (no scopolamine), icv) was 46.1 s.

In the case of `CCCC[C@@H](N)C(=O)N[C@@H](CCSC)C(=O)N[C@H](C(=O)NCCCCCC(N)=O)[C@@H](C)CC` [D-Nle-Met-Ile-NH—(CH2)5—CONH2] (H-[dNle]MI[Ahx]-NH2), the “inhibition of HGF-dependent Met auto-phosphorylation” value (Met) is reported as “no ability to effect on Met activation” and the “inhibition of HGF-dependent MDCK cell scattering” value (MDCK cells [2]) is reported as “not different”.
